Measurements reported in US20170086461A1, “SYNERGISTIC ANTIMICROBIAL COMPOSITION” (Dow Global Technologies LLC, priority 2015, published 2017).

Tested on: Pseudomonas aeruginosa DSM # 939
Test: Minimum Inhibitory Concentration (MIC) test with synergy index (Kull method)
Type: cell-based
Conditions: single biocide acting alone; TSB broth, 30° C., 48 hours, ~1×10^6 CFU/ml
Experimental: The synergism of the biocides combination of the present invention was determined using the method described by Kull, F.C., et. al in Applied Microbiology 9:538-541 (1961).
The formula to calculate the synergy index (SI) is
• QA=concentration of compound A in ppm, acting alone produced an end point (growth/no growth) • Qa=concentration of compound A in ppm, in the mixture, which produced an end point (growth/no growth) • QB=concentration of compound B in ppm, acting alone produced an end point (growth/no growth) • Qb=concentration of compound B in ppm, in the mixture, which produced an end point (growth/no growth)
The Minimum Inhibitory Test (MIC) is designed to evaluate the lowest concentration of a biocide, biocide blend or biocide combination to prevent bacteria growing in a defined broth.
Minimum Inhibitory Concentration (MIC) Testing Protocol • 1. […]
The culture was maintained as a glycerol stock at −80° C. in cryovials. […] Reading of the results was carried out by measuring absorbance at 600 nm for each sample at the beginning of the test (tzero) and after incubation (tendpoint). tendpoint was chosen at 48 hours for bacteria. The difference in absorbance between tendpoint and tzero was used to assign a score (Δ>0.2 confirms growth while Δ≦0.2 confirms no growth) from which the MIC values were calculated.

Cc1cc(O)ccc1Cl [Chlorocresol, 4-chloro-3-methylphenol]
Minimum Concentration (active ppm) to Inhibit Growth, active alone: 1539 ppm

Cn1sc2ccccc2c1=O [MBIT, 2-methyl-1,2-benzothiazol-3(2H)-one]
Minimum Concentration (active ppm) to Inhibit Growth, active alone: 62 ppm
